Laboratory results: ChEMBL document CHEMBL1134213, “Synthesis and SAR of benzamidine factor Xa inhibitors containing a vicinally-substituted heterocyclic core” (Bioorg Med Chem Lett, 2001)

Key:
Trypsin = Trypsin (Homo sapiens, UniProt P07477+P07478+P35030); experiment: Binding affinity towards human trypsin; format: protein assay
Oryctolagus cuniculus = species: Oryctolagus cuniculus; experiment: Antithrombotic efficacy was determined in a rabbit (A-V) shunt model; format: functional
Coagulation factor X [1] = target: Coagulation factor X (Homo sapiens, UniProt P00742); experiment: Binding affinity towards human Serine protease FXa
Coagulation factor X (Homo sapiens, UniProt P00742), sequence (P00742 41-179 limits assumed): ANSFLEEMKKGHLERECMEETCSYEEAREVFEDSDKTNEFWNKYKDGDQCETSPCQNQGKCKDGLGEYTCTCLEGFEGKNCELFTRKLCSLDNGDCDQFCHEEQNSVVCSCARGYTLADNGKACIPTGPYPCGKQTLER
Coagulation factor X (Homo sapiens, UniProt P00742), sequence (P00742 235-488 limits assumed): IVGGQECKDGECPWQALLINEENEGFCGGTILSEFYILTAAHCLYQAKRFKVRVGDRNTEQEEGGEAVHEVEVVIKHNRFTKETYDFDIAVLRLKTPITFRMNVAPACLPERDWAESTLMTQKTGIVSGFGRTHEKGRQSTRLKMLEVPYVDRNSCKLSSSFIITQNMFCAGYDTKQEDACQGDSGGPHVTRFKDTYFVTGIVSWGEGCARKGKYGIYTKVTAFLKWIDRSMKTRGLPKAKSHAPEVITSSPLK

Prothrombin = Prothrombin (Homo sapiens, UniProt P00734); experiment: Binding affinity towards human thrombin
Coagulation factor X [2] = target: T1, Coagulation factor X (Oryctolagus cuniculus, UniProt O19045); experiment: Binding affinity towards Rabbit Coagulation factor X in a rabbit arterio-venous (A-V) shunt model
T1 sequence (O19045 whole entry): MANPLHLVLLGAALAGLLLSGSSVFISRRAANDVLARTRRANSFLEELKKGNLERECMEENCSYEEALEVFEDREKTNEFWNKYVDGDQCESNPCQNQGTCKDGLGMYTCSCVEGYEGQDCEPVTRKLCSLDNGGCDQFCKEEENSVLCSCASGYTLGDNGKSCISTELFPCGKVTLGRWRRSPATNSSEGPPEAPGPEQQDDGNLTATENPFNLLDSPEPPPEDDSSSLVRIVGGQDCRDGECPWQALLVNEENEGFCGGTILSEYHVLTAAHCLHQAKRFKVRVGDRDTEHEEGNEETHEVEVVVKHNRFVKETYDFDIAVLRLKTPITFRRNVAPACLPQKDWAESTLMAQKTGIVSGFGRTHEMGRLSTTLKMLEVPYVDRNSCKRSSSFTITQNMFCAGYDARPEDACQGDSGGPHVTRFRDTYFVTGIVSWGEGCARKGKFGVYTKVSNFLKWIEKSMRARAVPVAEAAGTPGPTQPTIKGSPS

Row | SMILES | Ki (Trypsin) [nM] | ID50 (Oryctolagus cuniculus) [µM/h/kg] | Ki (Coagulation factor X [1]) [nM] | Ki (Prothrombin) [nM] | Ki (Coagulation factor X [2]) [nM]
1 | N=C(N)c1cccc(-n2cccc2C(=O)Nc2ccc(-c3ccccc3S(N)(=O)=O)cc2)c1 | 56 | – | – | – | –
2 | Cc1cc(C(=O)Nc2ccc(-c3ccccc3S(N)(=O)=O)cc2)n(-c2cccc(C(=N)N)c2)n1.O=C(O)C(F)(F)F | – | 0.023 | – | – | –
3 | N=C(N)c1cccc(-c2nocc2C(=O)Nc2ccc(-c3ccccc3S(N)(=O)=O)cc2)c1.O=C(O)C(F)(F)F | 21 | 0.31 | – | – | –
4 | N=C(N)c1cccc(-c2[nH]c(O)nc2C(=O)Nc2ccc(-c3ccccc3S(N)(=O)=O)cc2)c1.O=C(O)C(F)(F)F | 390 | – | 2.3 | 6000 | –
5 | Cc1nc(-c2cccc(C(=N)N)c2)c(C(=O)Nc2ccc(-c3ccccc3S(N)(=O)=O)cc2)s1.O=C(O)C(F)(F)F | 60 | 0.5 | 0.06 | 1250 | 0.08
6 | N=C(N)c1cccc(-c2ocnc2C(=O)Nc2ccc(-c3ccccc3S(N)(=O)=O)cc2)c1.O=C(O)C(F)(F)F | 261 | 0.54 | 2.5 | 3300 | –
7 | N=C(N)c1cccc(-n2nncc2C(=O)Nc2ccc(-c3ccccc3S(N)(=O)=O)cc2)c1.O=C(O)C(F)(F)F | 3.4 | – | 0.023 | 300 | –
8 | N=C(N)c1cccc(-n2cncc2C(=O)Nc2ccc(-c3ccccc3S(N)(=O)=O)cc2)c1.O=C(O)C(F)(F)F | 58 | – | 1.1 | 3200 | –
9 | Cc1nc(C(=O)Nc2ccc(-c3ccccc3S(N)(=O)=O)cc2)c(-c2cccc(C(=N)N)c2)[nH]1.O=C(O)C(F)(F)F | 1100 | – | 6 | > 21000 | –
10 | N=C(N)c1cccc(-n2nnnc2C(=O)Nc2ccc(-c3ccccc3S(N)(=O)=O)cc2)c1.O=C(O)C(F)(F)F | 6.4 | 0.13 | 0.037 | 300 | –
11 | N=C(N)c1cccc(-c2ccccc2C(=O)Nc2ccc(-c3ccccc3S(N)(=O)=O)cc2)c1.O=C(O)C(F)(F)F | 780 | – | 8.2 | > 6300 | –
12 | N=C(N)c1cccc(-c2ncsc2C(=O)Nc2ccc(-c3ccccc3S(N)(=O)=O)cc2)c1.O=C(O)C(F)(F)F | 97 | – | 0.82 | > 6300 | –
13 | Cc1nc(-c2cccc(C(=N)N)c2)c(C(=O)Nc2ccc(-c3ccccc3S(N)(=O)=O)cc2)o1.O=C(O)C(F)(F)F | 190 | – | 0.4 | 3600 | –
14 | Cc1cn(-c2cccc(C(=N)N)c2)c(C(=O)Nc2ccc(-c3ccccc3S(N)(=O)=O)cc2)n1.O=C(O)C(F)(F)F | 27 | – | 0.3 | 600 | –
15 | Cn1cc(C(=O)Nc2ccc(-c3ccccc3S(N)(=O)=O)cc2)c(-c2cccc(C(=N)N)c2)n1.O=C(O)C(F)(F)F | 220 | – | 0.2 | 2640 | –
16 | N=C(N)c1cccc(-n2ccnc2C(=O)Nc2ccc(-c3ccccc3S(N)(=O)=O)cc2)c1.O=C(O)C(F)(F)F | 26 | – | 0.33 | 800 | –
17 | N=C(N)c1cccc(-c2ncccc2C(=O)Nc2ccc(-c3ccccc3S(N)(=O)=O)cc2)c1.O=C(O)C(F)(F)F | 260 | – | 1 | 15400 | –
18 | N=C(N)c1cccc(-n2nccc2C(=O)Nc2ccc(-c3ccccc3S(N)(=O)=O)cc2)c1 | 15 | – | – | – | –
